Measured values reported in patent publication US12617779B2, “Self degradation-type CDK9 inhibitor prodrug and liposome encapsulating same” (Sumitomo Pharma Co., Ltd., priority 2021, dated 2026).

Experiment: Evaluation of conversion rate to active form in buffer solution (Experimental Example 1)
Format: physicochemical
Conditions: for Production rate of Alvocidib / Residual rate: 25 umol/L in buffer solution
In short: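 Conversion to Alvocidib was followed by HPLC over 3 hours at 37° C, with test compounds at 25 umol/L in 50 mM citrate or phosphate buffers spanning pH 5.0–7.4.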

**Q.** For CC(C)N(CC1CCCCN1)C(=O)Oc1cc(O)c2c(=O)cc(-c3ccccc3Cl)oc2c1[C@H]1CCN(C)C[C@H]1O (stereo partly drawn) [Example 10, 2-(2-chlorophenyl)-5-hydroxy-8-[(3S,4R)-3-hydroxy-1-methylpiperidin-4-yl]-4-oxo-4H-1-benzopyran-7-yl [(piperidin-2-yl)methyl]propan-2-ylcarbamate], which “Efficiency of conversion to Alvocidib” value (buffer solution, 37° C.) is on record?
**A.** higher efficiency

**Q.** What about the “Production rate of Alvocidib” value (pH5.0, 0 hr, 37° C.) of the same molecule?
**A.** 1.6%

**Q.** And the Residual rate (pH5.0, 0 hr, 37° C.)?
**A.** 90.6%

**Q.** What about the “Stability in buffer solution at pH 5” value (pH 5, 37° C., up to 2 or 3 hours) of the same molecule?
**A.** stable

**Q.** And the “Production rate of Alvocidib” value (pH5.0, 0.5 hr, 37° C.)?
**A.** 2.1%

**Q.** And the Residual rate (pH5.0, 0.5 hr, 37° C.)?
**A.** 90.4%

**Q.** What about the “Production rate of Alvocidib” value (pH5.0, 1 hr, 37° C.) of the same molecule?
**A.** 2.5%

**Q.** And the Residual rate (pH5.0, 1 hr, 37° C.)?
**A.** 90.8%

**Q.** And the “Production rate of Alvocidib” value (pH5.0, 2 hr, 37° C.)?
**A.** 3.1%

**Q.** And the Residual rate (pH5.0, 2 hr, 37° C.)?
**A.** 90.1%

**Q.** What about the “Production rate of Alvocidib” value (pH5.0, 3 hr, 37° C.) of the same molecule?
**A.** 3.9%

**Q.** And the Residual rate (pH5.0, 3 hr, 37° C.)?
**A.** 89.5%

**Q.** What about the “Production rate of Alvocidib” value (pH5.5, 0 hr, 37° C.) of the same molecule?
**A.** 1.6%

**Q.** What about the Residual rate (pH5.5, 0 hr, 37° C.) of the same molecule?
**A.** 90.7%

**Q.** And the “Production rate of Alvocidib” value (pH5.5, 0.5 hr, 37° C.)?
**A.** 2.7%

**Q.** And the Residual rate (pH5.5, 0.5 hr, 37° C.)?
**A.** 90.4%

**Q.** What about the “Production rate of Alvocidib” value (pH5.5, 1 hr, 37° C.) of the same molecule?
**A.** 3.6%

**Q.** And the Residual rate (pH5.5, 1 hr, 37° C.)?
**A.** 89.5%

**Q.** And the “Production rate of Alvocidib” value (pH5.5, 2 hr, 37° C.)?
**A.** 5.4%

**Q.** And the Residual rate (pH5.5, 2 hr, 37° C.)?
**A.** 87.9%

**Q.** And the “Production rate of Alvocidib” value (pH5.5, 3 hr, 37° C.)?
**A.** 7.2%

**Q.** What about the Residual rate (pH5.5, 3 hr, 37° C.) of the same molecule?
**A.** 86.3%

**Q.** What about the “Production rate of Alvocidib” value (pH6.0, 0 hr, 37° C.) of the same molecule?
**A.** 1.7%

**Q.** And the Residual rate (pH6.0, 0 hr, 37° C.)?
**A.** 90.7%

**Q.** What about the “Production rate of Alvocidib” value (pH6.0, 0.5 hr, 37° C.) of the same molecule?
**A.** 4.9%

**Q.** What about the Residual rate (pH6.0, 0.5 hr, 37° C.) of the same molecule?
**A.** 88.2%

**Q.** And the “Production rate of Alvocidib” value (pH6.0, 1 hr, 37° C.)?
**A.** 8.1%

**Q.** What about the Residual rate (pH6.0, 1 hr, 37° C.) of the same molecule?
**A.** 85.2%

**Q.** What about the “Production rate of Alvocidib” value (pH6.0, 2 hr, 37° C.) of the same molecule?
**A.** 14.1%

**Q.** What about the Residual rate (pH6.0, 2 hr, 37° C.) of the same molecule?
**A.** 79.4%

**Q.** And the “Production rate of Alvocidib” value (pH6.0, 3 hr, 37° C.)?
**A.** 19.8%

**Q.** What about the Residual rate (pH6.0, 3 hr, 37° C.) of the same molecule?
**A.** 74.1%

**Q.** What about the “Production rate of Alvocidib” value (pH6.5, 0 hr, 37° C.) of the same molecule?
**A.** 1.9%

**Q.** And the Residual rate (pH6.5, 0 hr, 37° C.)?
**A.** 91.3%

**Q.** And the “Production rate of Alvocidib” value (pH6.5, 0.5 hr, 37° C.)?
**A.** 10.8%

**Q.** What about the Residual rate (pH6.5, 0.5 hr, 37° C.) of the same molecule?
**A.** 82.4%

**Q.** What about the “Production rate of Alvocidib” value (pH6.5, 1 hr, 37° C.) of the same molecule?
**A.** 19.4%

**Q.** And the Residual rate (pH6.5, 1 hr, 37° C.)?
**A.** 73.9%

**Q.** What about the “Production rate of Alvocidib” value (pH6.5, 2 hr, 37° C.) of the same molecule?
**A.** 34.6%

**Q.** And the Residual rate (pH6.5, 2 hr, 37° C.)?
**A.** 59.6%

**Q.** What about the “Production rate of Alvocidib” value (pH6.5, 3 hr, 37° C.) of the same molecule?
**A.** 46.2%

**Q.** What about the Residual rate (pH6.5, 3 hr, 37° C.) of the same molecule?
**A.** 47.1%

**Q.** And the “Production rate of Alvocidib” value (pH7.0, 0 hr, 37° C.)?
**A.** 2.2%

**Q.** And the Residual rate (pH7.0, 0 hr, 37° C.)?
**A.** 90.7%

**Q.** And the “Production rate of Alvocidib” value (pH7.0, 0.5 hr, 37° C.)?
**A.** 22.8%

**Q.** What about the Residual rate (pH7.0, 0.5 hr, 37° C.) of the same molecule?
**A.** 70.0%

**Q.** And the “Production rate of Alvocidib” value (pH7.0, 1 hr, 37° C.)?
**A.** 40.0%

**Q.** What about the Residual rate (pH7.0, 1 hr, 37° C.) of the same molecule?
**A.** 52.8%

**Q.** What about the “Production rate of Alvocidib” value (pH7.0, 2 hr, 37° C.) of the same molecule?
**A.** 63.6%

**Q.** What about the Residual rate (pH7.0, 2 hr, 37° C.) of the same molecule?
**A.** 29.6%

**Q.** What about the “Production rate of Alvocidib” value (pH7.0, 3 hr, 37° C.) of the same molecule?
**A.** 76.4%

**Q.** What about the Residual rate (pH7.0, 3 hr, 37° C.) of the same molecule?
**A.** 0.8%

**Q.** And the “Production rate of Alvocidib” value (pH7.4, 0 hr, 37° C.)?
**A.** 3.1%

**Q.** And the Residual rate (pH7.4, 0 hr, 37° C.)?
**A.** 89.9%

**Q.** What about the “Conversion to Alvocidib at pH 7.4” value (pH 7.4, 37° C., up to 3 hours) of the same molecule?
**A.** rapidly converted to Alvocidib

**Q.** What about the “Production rate of Alvocidib” value (pH7.4, 0.5 hr, 37° C.) of the same molecule?
**A.** 46.1%

**Q.** And the Residual rate (pH7.4, 0.5 hr, 37° C.)?
**A.** 46.5%

**Q.** What about the “Production rate of Alvocidib” value (pH7.4, 1 hr, 37° C.) of the same molecule?
**A.** 71.5%

**Q.** What about the Residual rate (pH7.4, 1 hr, 37° C.) of the same molecule?
**A.** 22.6%

**Q.** What about the “Production rate of Alvocidib” value (pH7.4, 2 hr, 37° C.) of the same molecule?
**A.** 87.2%

**Q.** And the Residual rate (pH7.4, 2 hr, 37° C.)?
**A.** 0.9%

**Q.** And the “Production rate of Alvocidib” value (pH7.4, 3 hr, 37° C.)?
**A.** 91.6%

**Q.** What about the Residual rate (pH7.4, 3 hr, 37° C.) of the same molecule?
**A.** 0.8%
